{
  "source": "patent US20090253634A1",
  "about": "“Methods and Compositions for the Treatment of Gastrointestinal Disorders” (MICROBIA, INC., priority 2005, published 2009)",
  "key": {"intestinal secretion": {"test_system": "intestinal secretion", "test": "suckling mouse model of intestinal secretion (SuMi assay)", "type": "in vivo, suckling mice", "settings": "dose response; wild-type ST purchased from TDT; FIG. 5a, 5b", "procedure": "In this model a test compound is administered to suckling mice that are between 7 and 9 days old. After the mice are sacrificed, the gastrointestinal tract from the stomach to the cecum is dissected (“guts”). The remains (“carcass”) as well as the guts are weighed and the ratio of guts to carcass weight is calculated. If the ratio is above 0.09, one can conclude that the test compound increases intestinal secretion. […] The effect of Zelnorm® was also studied."}, "[1]": {"test_system": "abdominal EMG response to colorectal distension", "test": "colorectal distension in WT and GC-C KO mice, basal and TNBS-induced", "type": "in vivo", "settings": "for TNBS induced hypersensitivity to CRD: oral 0.01 μg/kg", "procedure": "TNBS induced visceral hypersensitivity was assessed in WT and GC-C KO mice. Two groups (WT and GC-C KO) of male mice (22-25g) were surgically prepared for electromyographic (EMG) recordings. Three electrodes were implanted in the striated muscles of the abdomen for EMG recording of abdominal contractions. Colorectal distension (CRD) was performed with a balloon inflated by 10 s steps of 0.02 ml from 0 to 0.12 ml. Under basal conditions mice were submitted to control CRD (time 0) followed by oral administration of SEQ ID NO:3 (0.01 and 0.3 μg/kg) or vehicle only (distilled water, 1 ml) at 3 hours. One hour post dosing the CRD procedure was repeated. Abdominal EMG contractile response to colorectal distension in basal conditions in both WT and GC-C KO mice (12-14 mice per group) was determined in the absence of vehicle and SEQ ID NO:3, and the mean +/− standard error of the mean (SEM) is graplhically depicted in FIG. 7c.\nFor TNBS induced visceral hypersensitivity conditions, mice were submitted to control CRD (time 0) and TNBS (20 mg/kg) was administered at 3 days. Three days post intracolonic TNBS-induction animals were orally admistered SEQ ID NO:3 (0.01 and 0.3 μg/kg) or vehicle (distilled water, 1 ml) 1 hour before CRD. The effect of SEQ ID NO:3 (0.01 μg/kg) on abdominal response to colorectal distension after TNBS in WT and GC-C KO mice (12-14 per group) at a volume distension of […] was determined and the mean +/− standard error of the mean (SEM) is graphically depicted in FIG. 7d."}, "guanylate cyclase C": {"biological_target": "T1, guanylate cyclase C (Mus musculus, UniProt Q3UWA6)", "T1 construct": "isolated intestinal epithelial cells from two female wild-type and two female GC-C KO mice; from tissue; host or cells: mouse intestinal epithelial cells (homogenised), wild-type; GC-C KO mice as control", "T1 sequence (Q3UWA6 20-1072)": "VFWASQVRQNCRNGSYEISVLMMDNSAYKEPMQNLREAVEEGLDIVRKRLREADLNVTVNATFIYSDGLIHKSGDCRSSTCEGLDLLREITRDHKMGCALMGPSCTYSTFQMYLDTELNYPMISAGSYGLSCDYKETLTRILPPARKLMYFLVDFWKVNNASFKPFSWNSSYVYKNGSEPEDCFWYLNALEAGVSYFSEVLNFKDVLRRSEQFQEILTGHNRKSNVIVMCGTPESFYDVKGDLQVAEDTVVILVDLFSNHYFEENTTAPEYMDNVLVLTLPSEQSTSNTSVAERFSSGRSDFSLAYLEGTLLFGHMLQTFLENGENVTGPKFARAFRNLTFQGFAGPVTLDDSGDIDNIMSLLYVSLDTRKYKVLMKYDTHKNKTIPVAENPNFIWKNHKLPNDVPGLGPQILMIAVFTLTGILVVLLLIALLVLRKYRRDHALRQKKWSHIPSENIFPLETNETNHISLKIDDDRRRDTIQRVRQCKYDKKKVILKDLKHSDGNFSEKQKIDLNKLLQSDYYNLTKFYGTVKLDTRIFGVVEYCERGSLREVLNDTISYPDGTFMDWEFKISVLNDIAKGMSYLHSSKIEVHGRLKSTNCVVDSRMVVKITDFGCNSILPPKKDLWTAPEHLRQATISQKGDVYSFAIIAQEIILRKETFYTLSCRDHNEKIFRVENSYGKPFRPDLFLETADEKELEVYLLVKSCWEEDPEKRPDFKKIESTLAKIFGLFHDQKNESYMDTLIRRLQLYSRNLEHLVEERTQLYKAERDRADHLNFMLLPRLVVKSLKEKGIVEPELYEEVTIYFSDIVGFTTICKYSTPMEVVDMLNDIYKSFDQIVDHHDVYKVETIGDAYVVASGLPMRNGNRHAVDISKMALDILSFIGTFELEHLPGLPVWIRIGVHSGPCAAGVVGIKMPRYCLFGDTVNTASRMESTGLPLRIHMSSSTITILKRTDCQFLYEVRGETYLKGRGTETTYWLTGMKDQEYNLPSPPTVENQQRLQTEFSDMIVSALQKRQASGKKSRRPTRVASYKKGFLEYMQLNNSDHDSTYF", "test": "competition binding assay on intestinal epithelial cells of wild-type and GC-C KO mice", "settings": "GC-C KO mice compared to wild-type mice; 125I-SEQ ID NO:3", "method": "Mouse intestinal epithelial cells were prepared identical to that above as for rat intestinal epithelial cells except the cells were homogenized with an Omni homogenizer for 20 seconds on the maximum setting to make a suspension of cells. A competition binding assay was performed identical to that described above between ^125I labeled SEQ ID NO:3 and unlabeled SEQ ID NO:3 (competitor)."}, "bowel habits": {"test_system": "bowel habits", "test": "seven-day oral dosing study of bowel habits in humans", "type": "in vivo", "procedure": "Seven daily doses of 30, 100, 300, or 1000 μg of chemically synthesized SEQ ID NO:3 were given to 48 healthy subjects. SEQ ID NO:3 or placebo (vehicle) was administered orally in 5.0 mL 50 mM phosphate buffer (pH 6.0) plus 3×20 mL water rinses and 175 mL water after at least a 10-hour fast. In each dosing group, 8 subjects were randomized to receive SEQ ID NO:3 and 4 subjects were randomized to receive placebo. […] The Mean Ease of Passage (FIG. 15d) of stools was tested for subjects treated with 30-1000 μg SEQ ID NO:3."}},
  "note": "Bridge positions count the residues as written; N and C are the ends. Peptide text beside a SMILES is read from it.",
  "data": [
    {"smiles": "C[C@@H]1NC(=O)[C@@H]2CCCN2C(=O)[C@H](CC(N)=O)NC(=O)[C@@H]2CSSC[C@H](N)C(=O)N[C@H]3CSSC[C@H](NC1=O)C(=O)N[C@@H]([C@@H](C)O)C(=O)NCC(=O)N[C@H](C(=O)N[C@@H](Cc1ccc(O)cc1)C(=O)O)CSSC[C@H](NC(=O)[C@H](Cc1ccc(O)cc1)NC(=O)[C@H](CCC(=O)O)NC3=O)C(=O)N2", "note": "[SEQ ID NO:3] (H-CCEYCCNPACTGCY-OH; disulfide 1-6, 2-10, 5-13; N-terminus and C-terminus assumed)", "values": [
      {"measurement": "intestinal secretion (guts to carcass weight ratio)", "setting": "intestinal secretion", "result": "increase intestinal secretion"},
      {"measurement": "TNBS induced hypersensitivity to CRD", "setting": "[1]; GC-C KO mice", "result": "not observed"},
      {"measurement": "TNBS induced hypersensitivity to CRD", "setting": "[1]; WT mice, volume distension of 0.8 ml", "result": "reduces the TNBS induced hypersensitivity to CRD"},
      {"measurement": "EMG response to colorectal distension", "setting": "[1]; basal conditions, WT mice, oral 0.01 and 0.3 μg/kg", "result": "decreased the EMG response to colorectal distension"},
      {"measurement": "binding to intestinal epithelial cells", "setting": "guanylate cyclase C", "result": "reduction in SEQ ID NO:3 binding"},
      {"measurement": "Mean Ease of Passage of stools, baseline versus treatment, versus placebo", "setting": "bowel habits; 1000 μg dose group", "result": "greatest difference in baseline versus treatment values"},
      {"measurement": "Mean Stool Weight", "setting": "bowel habits; seven daily oral doses 30-1000 μg, higher doses", "result": "increase in Mean Stool Weight"},
      {"measurement": "Mean Stool Frequency (stools per week)", "setting": "bowel habits; seven daily oral doses 30-1000 μg, higher doses, healthy subjects", "result": "increase in Mean Stool Frequency score"}
    ]}
  ]
}
